Results on 3 molecules are retold here after patent US5344843A, “Cat-1 inhibitors, pharmaceutical compositions and methods of use” (Hoffman-La Roche Inc., priority 1992, dated 1994).

Test [1] addresses T1, CAT-1 (carnitine acyltransferase 1) (Rattus norvegicus, UniProt Q63704).
T1 construct: This preparation is used as the isolated mitochondrial preparation; from tissue; host or cells: rat heart (atria removed), isolated mitochondria
T1 sequence (Q63704 1-772): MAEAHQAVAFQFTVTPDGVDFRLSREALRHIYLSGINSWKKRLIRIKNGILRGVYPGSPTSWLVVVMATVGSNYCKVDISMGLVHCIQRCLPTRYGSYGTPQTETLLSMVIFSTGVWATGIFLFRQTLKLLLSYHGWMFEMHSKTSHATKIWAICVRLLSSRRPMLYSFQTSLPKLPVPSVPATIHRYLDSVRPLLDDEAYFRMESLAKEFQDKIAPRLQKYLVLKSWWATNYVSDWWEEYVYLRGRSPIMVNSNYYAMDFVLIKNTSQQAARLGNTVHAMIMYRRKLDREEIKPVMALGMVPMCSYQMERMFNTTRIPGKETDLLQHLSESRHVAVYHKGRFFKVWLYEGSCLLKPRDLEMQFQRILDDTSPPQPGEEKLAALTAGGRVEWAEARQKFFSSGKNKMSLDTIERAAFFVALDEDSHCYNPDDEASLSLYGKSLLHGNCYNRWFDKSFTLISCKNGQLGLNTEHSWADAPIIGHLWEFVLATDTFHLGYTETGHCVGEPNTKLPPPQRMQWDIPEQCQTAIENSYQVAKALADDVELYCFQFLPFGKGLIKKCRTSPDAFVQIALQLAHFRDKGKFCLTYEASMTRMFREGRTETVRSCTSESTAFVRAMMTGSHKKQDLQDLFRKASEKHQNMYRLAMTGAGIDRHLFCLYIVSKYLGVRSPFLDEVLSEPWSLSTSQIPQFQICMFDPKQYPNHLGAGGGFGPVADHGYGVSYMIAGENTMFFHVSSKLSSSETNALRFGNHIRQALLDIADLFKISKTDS
The experiment in a line: Secondary Screen--Inhibition of CAT-1 in intact cardiac myocytes (hypoxia-induced increase in long-chain acylcarnitines). The format is cell-based. Further details: inhibition: dose or concentration left out as unconfirmed. Particulars: isolated rat cardiac myocytes.
Experimental: Secondary Screen--Inhibition of CAT-1 in intact Cardiac Myocytes
(a) Preparation of Isolated Rat Cardiac Myocytes
Four hearts are excised from anesthetized rats and perfused retrogradly via the Langendorf technique. Each heart receives 100 mL of Krebs (NaCl, 118.4 mM; KCL, 4.6 mM; NaH2 PO4, 1.0 mM; NaHCO3, 20 mM; MgSO4, 2 mM; CaCl2, 50 μM; glucose, 11.0 mM), 100 mL of Ca++ free Krebs and finally 100 mL of 0.5% collagenase (Boehringer Mannhelm, type 1) in Hepes (NaCl, 115 mM; KCl, 5 mM; sucrose, 35 mM; glucose, 10 mM; Hepes, 10 mM; taurine, 4 mM; MgSO4, 2 mM; CaCl2, 50 μM). After these perfusions, the hearts are chopped into pieces, approx. 0.5 cm×0.5 cm and placed in four 125 mL plastic bottles along with 25 mL of collagenase/Hepes situated in a water bath maintained at 35° C. The pieces of cardiac tissue in each bottle are agitated by using a Harvard respirator connected to four glass syringes, which sucks the tissue up and down each tube during each respiratory cycle. After fifteen minutes, the collagenase/Hepes is removed and replaced with fresh collegenase/Hepes and the process repeated. The collegenase/Hepes from the subsequent fifteen minute harvests are centrifuged at 500 g to pellet the cells which are then resuspended in Hepes buffer. After six harvests, all cells are pelleted, resuspended in 2×26.5 mL of Hepes plus BSA (350 mg) and layered on top of 2×percoll gradients (21.15 mL percoll, 2.35 mL NaCl, 6 drops acetic acid). This is centfifuged at 3000 g for eight minutes forming a percoll gradient which results in viable cells being separated from damaged cells. The viable cells are removed, washed with Hepes and finally resuspended in 25 mL of Hepes.
The isolated cardiac myocytes (2 mL; approximately 1×10^6 cells) are separated into six glass pods. Into four of these are placed selected concentrations of the compound to be tested, and the cells are incubated for twenty minutes, after which the pods are centrifuged at 300 g for three minutes. 300 μL of normoxic Hepes is placed in one of the pods not containing compound and then all pods are placed in a hypoxic chamber (N2 atmosphere). Oxygen is fed via small bore steel tubes to the pod containing the normoxic buffer, while the other five pods receive pre-purified argon (99.998% pure). After two minutes, Hepes (pre-gassed with argon for at least twelve hours) is fed into the five hypoxic pods. This hypoxic environment (pO2 <10 mm Hg) is maintained for twenty minutes, after which the cells and pods are frozen by contact with a metal block precooled in liquid N2. The pods are then removed from the chamber and stored at -70° C. The carnitine assay is performed, as described below in (c), to determine the amount of long-chain acylcarnitine in the cells from the normoxic, hypoxic and hypoxic plus compound samples. […] Thus the IC50 in this screen is the concentration of test compound which produces a 50% inhibition of the hypoxia-induced increase in long-chain acylcarnitines.
(c) Long-chain Acylcarnitine Assay.
The frozen cell samples are thawed, mixed and homogenized with 40 μL of 70% PCA. The homogenate is transferred to eppendorf tubes while the homogenization tube and the glass pod is rinsed with 500 μL of 7% PCA, with the rinse being added to the eppendorf tube. This is then centrifuged at 1000 g for two minutes to pellet the precipitate (containing the long-chain acylcarnitine) and the supernatant is discarded. The pellet is washed twice with 500 μL of 7% PCA, the supernatants being discarded. The pellet is then hydrolyzed (to separate the acyl unit from carnitine to yield free carnitine) by the addition of 200 μL of aleionized H2 O and 50 μL of 5N KOH and incubated at 70° C. for ninety minutes.

In test [2] the target is T1, CAT-1 (carnitine acyltransferase 1). The experiment in a line: Primary Screen--Inhibition of CAT-1 in isolated mitochondria. The format is biochemical. Particulars: rat heart mitochondria, reduction of palmitoyl carnitine formation by 50%; read-out: Primary Screen IC50.

Molecules are shown by their SMILES. pIC50: −log10 of the molar value.

As for `O=C(O)C(=O)c1ccc(OCC(=O)N2CCC(c3ccccc3)CC2)cc1` [Example 245, alpha-oxo-4-[2-oxo-2-(4-phenyl-1-piperidinyl)ethoxy]benzeneacetic acid], in test [1] (hypoxia), the inhibition – broadly, the share of the control response that was lost under treatment – was 33%. Also, the pIC50 (as a rule, −log10 of the IC50, conventionally taken in molar units) in test [2] was 7.22.
The molecule `O=C(O)C(=O)c1c(F)c(F)c(OCCOc2ccc3ccccc3c2)c(F)c1F` [Example 205, 2,3,5,6-tetrafluoro-4-[2-(2-naphthalenyloxy)ethoxy]-alpha-oxobenzeneaceticacid] had an inhibition at 25 µM in test [1] (@ 25 μM, hypoxia) of 35%. The pIC50 in test [2] is 5.14.
Regarding `O=C(OCC(O)CO)C(=O)c1ccc(OCCOc2ccc3ccccc3c2)cc1` (racemic) [Example 104, rac.-4-[[2-(2-naphthalenyloxy)ethyl]oxy]-alpha-oxobenzeneacetic acid 2,3-dihydroxypropyl ester], the figures for the pIC50 in test [1] (50% inhibition of hypoxia-induced increase in long-chain acylcarnitines) and in test [2] were 5.92 and 7.40, respectively.
